# Measured values: patent US8940936B2, “Aryloxy phenoxy acrylic compound having HIF-1 inhibition activity, method for preparing same, and pharmaceutical composition containing same as an active ingredient” (Korea Research Institute of Bioscience and Biotechnology, priority 2010, dated 2015)
# Key:
# HIF-1 = assay: Inhibition of HIF-1 mediated HRE transcription activity (pGL3-HRE-luciferase reporter); type: cell-based, human; details: for HRE transcription activity (%): HCT116, hypoxic condition 12 hours
# Protocol: To investigate the inhibition of HIF-1 transcription activity by the compound of the present invention, pGL3-basic vector (Promega) using luciferase as a reporter was cloned in multi-cloning site so as for HRE (Hypoxia Responsive Element, 5′-ACGTG-3′) existing in human VEGF gene to be repeated 6 times, resulting in the construction of pGL3-HRE-luciferase vector.
# The human rectal cancer cell line HCT116 was seeded in a 48-well cell culture vessel. On the next day, the cells were transfected with 25 ng of pGL3-HRE-luciferase vector and 2.5 ng of Renilla control vector by using Polyfect reagent. After culturing the cells for 24 hours, the medium was replaced, followed by further culture for 4 hours. Then, the cells were treated with the compound prepared in each example at the concentration of 10 μM respectively, followed by culture in hypoxic condition (oxygen 1%, nitrogen 94%, carbon dioxide 5%) for 12 hours. Lysate was obtained by using RIPA buffer, by which hypoxia-induced luciferase activity was measured by using dual-luciferase assay system (Promega). Hypoxia-induced luciferase activity after the treatment of the compound prepared in example 1 or the compound prepared in comparative example 1 was measured by the same manner as described above except that the compound was treated at the concentrations of 0, 1, 3, 5, 10, and 20 μM. HIF-1 inhibition activity of each compound prepared in example 1 and comparative example 1 respectively was compared and the results are shown in Table 2 and FIG. 2.
# HCT116 cells = assay: Cell migration inhibition activity (wound-healing experiment); type: cell-based, human; details: 10 μM, 48 hours, FIG. 9
# Protocol: To evaluate cell migration inhibition effect of the compound of example 1, wound-healing experiment was performed. Particularly, an insert (Ibidi) was placed in the center of a 6-well cell culture dish and HCT116 cells (3×10^5 cell/ml) were loaded in each well by 70 μl. Medium was filled in around the insert. 24 hours later, the insert was carefully eliminated by using forceps, and the cells were washed with medium carefully not to be detached from the bottom of the culture dish. The control group was added with the diluted medium supplemented with DMSO. The experimental group was added with the diluted medium supplemented with 10 μM of the compound of example 1. 48 hours later, cell migration in each group was observed.
# EPO (erythropoietin) = assay: Expression of HIF-1 target gene EPO (RT-PCR, HCT116); type: cell-based, human; details: mRNA, HCT116, hypoxic condition, 0, 10, 20 μM; FIG. 5
# Protocol: To investigate HIF-1 inhibition activity of the compound of the present invention, the inhibition of VEGF and EPO, two most representative HIF-1 target genes, by the compound of formula 1 prepared in example 1 was measured. Particularly, the colon cancer cell line HCT116 was used for the measurement as follows.
# The human colon cancer cell line HCT116 was seeded in cell culture vessel at the density of 2×10^5 cell/ml, followed by culture for 24 hours. The cells were pretreated in hypoxic condition (oxygen 1%; nitrogen 94%; carbon dioxide 5%) for 4 hours to induce the accumulation of HIF-1α. The cells were treated with the compound of formula 1 prepared in example 1 at the concentrations of 0, 10, and 20 μM, followed by culture for 12 hours in hypoxic condition. Then, mRNA was extracted by using trizol. To compare the expression with that of HIF-1 target gene treated with the compound prepared in comparative example 1, the control was treated with the compound of comparative example 1 at the concentrations of 0, 10, 15, and 20 μM. From the extracted mRNA, cDNA was synthesized by using RT-PCR kit (Invitrogen). The amounts of mRNAs of the HIF-1α target genes VEGF (vascular endothelial growth factor A) and EPO (erythropoietin) were measured by using RT-PCR and real-time RT-PCR. […]
# HIF-1α = HIF-1α expression in tumor tissue (tumor tissue immune response experiment, Caki-1 model); type: in vivo, mouse; details: Caki-1 tumor, optical microscope; FIG. 6
# Protocol: In addition, to investigate whether or not the anticancer activity shown in experimental example 5 was attributed to the decrease of HIF-1α expression, tumor tissue immune response experiment was performed.
# [1] = test system: B16F10 melanoma cell line; assay: Angiogenesis inhibition activity in B16F10 tumor tissue; type: in vivo, mouse; details: FIG. 7, FIG. 8
# Protocol: The following experiment was performed to investigate if the compound of formula 1 could inhibit angiogenesis along with the tumor growth.
# Particularly, the experimental group composed of 5 female mice (C57BL) at 6 weeks was transplanted with B16F10 melanoma cell line. After the cancer cells were grown, the mice were treated with the compound of formula 1 via intraperitoneal injection at the dose of […] for 5 days. Inhibition of angiogenesis and the tumor growth were observed. In the meantime, the control group was treated with the mixed solution comprising 10% DMAC, 10% cremophor and 80% buffer (pH 10) every day. The comparative group was treated with topotecan at the dose of 2 mg/kg once every other day. Weight changes and the newly generated blood vessels were measured and the results are shown in Table 7, Table 8, FIG. 7, and FIG. 8. The tumor volume shown in Table 8 was calculated by the mathematical formula 1 of experimental example 4 and the inhibition rate was calculated by the mathematical formula 2 of experimental example 4.
smiles,measurement,setting,value
"COC(=O)c1cccc(NC(=O)/C=C/Oc2ccc(C34CC5CC(CC(C5)C3)C4)cc2)c1 [Example 1, (E)-3-[3-(4-Adamantan-1-yl-phenoxy)-acryloylamino]-benzoic acid methyl ester]",HRE transcription activity (%),HIF-1; 1 μM,57.7%
same,HRE transcription activity (%),HIF-1; 3 μM,32.1%
same,HRE transcription activity (%),HIF-1; 5 μM,25.4%
same,HRE transcription activity (%),HIF-1; 10 μM,23.0%
same,HRE transcription activity (%),HIF-1; 20 μM,19.8%
same,inhibition effect on HRE transcription activity compared with the compound of comparative example 1,"HIF-1; cancer cell line HCT116, hypoxia",at least three times higher inhibition effect
same,cell migration,HCT116 cells,significantly reduced cell migration
same,expression of EPO,EPO (erythropoietin),"inhibited the expressions of VEGF and EPO, the HIF-1 target genes, dose-dependently"
same,HIF-1α expression in tumor tissue,HIF-1α,significantly reduced
same,reduction of angiogenesis compared with non-treated group,[1],~40%
